Measured values taken from patent publication US6319929A, “Suksdorfin analogs, compositions thereof, and methods for making and using thereof” (priority 1998, dated 2001).
Values joined by “and” are separate entries in the source; they are usually repeats but may differ in a detail not shown here. Equal entries are not always repeated. “Also recorded” adds a separate entry of the source. Where two headings read alike, the source gives them in different places.

Tests used:
[1] = test system: HIV-1 replication in H9 cells; test: Combination study of suksdorfin with AZT, ddI and ddC: HIV-1 replication in acutely infected H9 cells; format: cell-based, HIV-1 (IIIB)
Procedure: HIV Growth Inhibition Assay: The T cell line, H9, and the promonocytic cell line, U937, were maintained separately in continuous culture with complete medium (RPMI 1640 and […] fetal calf serum (FCS) at 5% CO2 and 37° C. Cell lines were used in experiments only when in log phase of growth; whereas, uninfected peripheral blood mononuclear cells (PBMCs) were first stimulated with PHA (1 μg/ml) for 3 days. All cell targets were incubated with HIV-1 (IIIB isolate, TCID50 10 ^4 IU/mi, at a multiplicity of infection of 0.1-0.01 IU/cell) for 1 hour at 37° C. and 5% CO2. The cell lines and PBMCs were washed thoroughly to remove unabsorbed virions and resuspended at 4×10^5 cells/ml in complete medium or complete medium with 10% v/v interleukin […] IL-2, respectively. Aliquots ( ml) were placed in wells of 24-well culture plates containing an equal volume of test compound (diluted in the appropriate culture medium). After incubation for 4 days at 37° C., cell density of uninfected cultures was determined by counting cells in a Coulter counter to assess toxicity of the test compound. A p24 antigen ELISA assay was used to determine the level of virus released in the medium of the HIV-infected cultures. The p24 antigen assay uses a HIV-1 anti-p24 specific monoclonal antibody as the capture antibody coated-on 96-well plates. Following a sample incubation period, rabbit serum containing antibodies for HIV-1 p24 is used to tag any p24 "captured" onto the microtiter well surface. […] The cut-off for the p24 ELISA assay is 12. pg/ml. P24 in the culture medium was quantitated against a standard curve containing known amounts of p24. […] Both the EC50 and IC50 values were calculated by plotting drug concentration versus percent inhibition, and then identifying a 50% inhibition value from the graph.
Combination Study: The experimental design is identical to the growth inhibition assay except that various concentrations of AZT, ddI or ddC were also added to cultures of acutely HIV-1 infected H9 cells that either have or have no received different concentrations of suksdorfin. The concentrations of AZT, ddI and ddC were 5 ten-fold dilutions starting at 1 μg/ml. [drawing 104] [drawing 105]

[2] = test system: HIV-1 replication in fresh monocytes; test: HIV-1 infection of fresh monocytes obtained by adherence (p24); format: cell-based; details: for inhibition at 0.032 µg/mL / inhibition at 0.16 µg/mL / inhibition at 0.8 µg/mL / inhibition at 4 µg/mL / inhibition at 20 µg/mL: Human immunodeficiency virus 1, Monocyte, read-out: % suppression
Source text: Results (Table 12) from adding Suksdorfin to fresh monocytes infected with HIV-1.
The monocytes which were used for this experiment were obtained by adherence and not by elutriation; therefore, this cell population is not as pure as what was used for the 16 monocyte data above.

[3] = test system: HIV-1 replication in PBMCs; test: HIV-1 replication in acutely infected PBMCs; format: cell-based, HIV-1 (IIIB); details: for EC50: Human immunodeficiency virus 1, PBMC, PBMCs; for suppression of acute HIV-1 replication in PBMCs (in words): fresh PBMCs
Procedure: Suksdorf in was tested on peripheral blood mononuclear cells (PBMCS) which were stimulated for 3 days with PHA (1 .parallel.g/ml). The cells were collected and then infected with the 20X stock HIV-1 (IIIB). This is the same virus that is used in the drug screening assay. PBMCs were used for the following reasons: (1) It is another type of T cell infection. (2) PMBCs are freshly isolated cells not a cell line as are H9 cells. (3) We need to know if the effects of suksdorfin were limited to only an acute HIV-1 infection of a T cell line such as H9 cells. After the cells were infected with HIV-1, the cells were washed and then placed in medium with the cytokine, interleukin 2 (IL-2). IL-2 is needed to keep the cells activated which is necessary also for virus replication.
As part of efforts to biologically characterize 16 the monocytic cell line, U937 and peripheral blood mononuclear cells (PBMCs) were separately infected with HIV-1 and then had various concentrations of the analog added for 4 days of culture.
HIV Growth Inhibition Assay: The T cell line, H9, and the promonocytic cell line, U937, were maintained separately in continuous culture with complete medium (RPMI 1640 and […] fetal calf serum (FCS) at 5% CO2 and 37° C. Cell lines were used in experiments only when in log phase of growth; whereas, uninfected peripheral blood mononuclear cells (PBMCs) were first stimulated with PHA (1 μg/ml) for 3 days. All cell targets were incubated with HIV-1 (IIIB isolate, TCID50 10 ^4 IU/mi, at a multiplicity of infection of 0.1-0.01 IU/cell) for 1 hour at 37° C. and 5% CO2. The cell lines and PBMCs were washed thoroughly to remove unabsorbed virions and resuspended at 4×10^5 cells/ml in complete medium or complete medium with 10% v/v interleukin […] IL-2, respectively. Aliquots ( ml) were placed in wells of 24-well culture plates containing an equal volume of test compound (diluted in the appropriate culture medium). After incubation for 4 days at 37° C., cell density of uninfected cultures was determined by counting cells in a Coulter counter to assess toxicity of the test compound. A p24 antigen ELISA assay was used to determine the level of virus released in the medium of the HIV-infected cultures. The p24 antigen assay uses a HIV-1 anti-p24 specific monoclonal antibody as the capture antibody coated-on 96-well plates. Following a sample incubation period, rabbit serum containing antibodies for HIV-1 p24 is used to tag any p24 "captured" onto the microtiter well surface. Peroxidase conjugated goat anti-rabbit serum is then used to tag HIV-1 p24 specific rabbit antibodies which have complexed with captured p24. […] The cut-off for the p24 ELISA assay is 12. pg/ml. P24 in the culture medium was quantitated against a standard curve containing known amounts of p24. The effective (EC50) and inhibitory (IC50) concentrations (for anti-HIV activity and cytotoxicity, respectively) were determined graphically. Both the EC50 and IC50 values were calculated by plotting drug concentration versus percent inhibition, and then identifying a 50% inhibition value from the graph.

For `Cc1cn([C@H]2C[C@H](N=[N+]=[N-])[C@@H](CO)O2)c(=O)[nH]c1=O` [AZT, azidothymidine, reference compound], the EC50 ([1]; Human immunodeficiency virus 1, H9) was 0.04 µg/mL, the IC50 ([1]; Human immunodeficiency virus 1, H9, read-out: IC50 (μM)^b) was 0.04 µg/mL and the “Therapeutic Index” value ([1]; Table 5, combinations with 4 μg/ml suksdorfin) was over 25. For the same compound, the “Therapeutic Index” value ([1]; Table 16, combinations with 4 μg/ml suksdorfin) was over 25, the “decrease of EC50 in presence of suksdorfin” value ([1]; with 4 μg/ml suksdorfin, H9) was 400 fold and the “increase of TI value in presence of suksdorfin” value ([1]; with 4 μg/ml suksdorfin, H9) was 400 fold. The p24 ([2]; Day 6, 0.008 μg/ml) was 42,004 pg/ml, the p24 ([2]; Day 6, 0.04 μg/ml) was 23,234 pg/ml and the p24 ([2]; Day 6, 0.2 μg/ml) was 34,360 pg/ml. For the same compound, the p24 ([2]; Day 6, 1 μg/ml) was 8,705 pg/ml, the p24 ([2]; Day 6, 5 μg/ml) was 13,542 pg/ml and the p24 ([2]; Day 12, 0.008 μg/ml) was 70,380 pg/ml. For the same compound, the p24 ([2]; Day 12, 0.04 μg/ml) was 17,144 pg/ml, the p24 ([2]; Day 12, 0.2 μg/ml) was 32,778 pg/ml and the p24 ([2]; Day 12, 1 μg/ml) was 5,354 pg/ml. For the same compound, the p24 ([2]; Day 12, 5 μg/ml) was 10,170 pg/ml, the p24 ([2]; Day 18, 0.008 μg/ml) was 75,428 pg/ml and the p24 ([2]; Day 18, 0.04 μg/ml) was 22,993 pg/ml. For the same compound, the p24 ([2]; Day 18, 0.2 μg/ml) was 31,759 pg/ml, the p24 ([2]; Day 18, 1 μg/ml) was 6,830 pg/ml and the p24 ([2]; Day 18, 5 μg/ml) was 12,330 pg/ml.
For `CC1(C)Oc2ccc3ccc(=O)oc3c2[C@@H](OC(=O)[C@@]23CC[C@@](C)(C(=O)O2)C3(C)C)[C@H]1OC(=O)[C@@]12CC[C@@](C)(C(=O)O1)C2(C)C` [Compound 16, 3',4'-Di-O-(-)-Camphanoyl-(+)-cis-Khellactone], the EC50 [3] was 0.018 µg/mL and 29 nM and the “suppression of acute HIV-1 replication in PBMCs (in words)” value [3] was “suppression detected”.
For `CC(=O)O[C@@H]1[C@H](OC(=O)CC(C)C)c2c(ccc3ccc(=O)oc23)OC1(C)C` [Suksdorfin, suksdorfin], the EC50 [3] was 3.9 µM, the EC50 ([3]; Table 6) was 1.5 µg/mL and the “suppression of acute HIV-1 replication in PBMCs (in words)” value [3] was “can suppress an acute HIV-1 replication”. For the same compound, the “synergy with AZT, ddI and ddC” value ([1]; H9) was “act synergistically with AZT, ddI and ddC”, the “synergy with AZT, ddI and ddC” value ([1]; H9, listed as 1) was “potentiate the anti-HIV effects of three nucleosides; also recorded: synergistic effect against HIV replication” and the EC50 ([1]; Human immunodeficiency virus 1, H9, Table 5, combinations with 4 μg/ml suksdorfin, read-out: EC50) was 2.8 µg/mL. It also gave an IC50 ([1]; Human immunodeficiency virus 1, H9, Table 16, concentration which inhibits viral replication by 50%, combinations with 4 μg/ml suksdorfin, read-out: IC50 (μM)^b) of 2.8 µg/mL, an EC50 ([1]; Human immunodeficiency virus 1, H9, later value, read-out: EC50 (value after increase)) of 1.5 to 2.8 µg/mL and an inhibition at 4 µg/mL ([1]; Human immunodeficiency virus 1, 4 μg/ml suksdorfin, H9) of 64%. For the same compound, the p24 ([2]; Day 6, 0.032 μg/ml) was 64,614 pg/ml, the p24 ([2]; Day 6, 0.16 μg/ml) was 70,195 pg/ml and the p24 ([2]; Day 6, 0.8 μg/ml) was 53,043 pg/ml. For the same compound, the p24 ([2]; Day 6, 4 μg/ml) was 48,748 pg/ml, the p24 ([2]; Day 6, 20 μg/ml) was 16,712 pg/ml and the p24 ([2]; Day 12, 0.032 μg/ml) was 173,998 pg/ml. For the same compound, the p24 ([2]; Day 12, 0.16 μg/ml) was 203,633 pg/ml, the p24 ([2]; Day 12, 0.8 μg/ml) was 163,656 pg/ml and the p24 ([2]; Day 12, 4 μg/ml) was 89,467 pg/ml. The p24 ([2]; Day 12, 20 μg/ml) was 25,567 pg/ml, the p24 ([2]; Day 18, 0.032 μg/ml) was 105,882 pg/ml and the p24 ([2]; Day 18, 0.16 μg/ml) was 125,440 pg/ml. For the same compound, the p24 ([2]; Day 18, 0.8 μg/ml) was 130,970 pg/ml, the p24 ([2]; Day 18, 4 μg/ml) was 103,834 pg/ml and the p24 ([2]; Day 18, 20 μg/ml) was 23,506 pg/ml. It also gave an inhibition at 0.032 µg/mL ([2]; 144 h, Day 6, 0.032 μg/ml) of 0%, an inhibition at 0.16 µg/mL ([2]; 144 h, Day 6, 0.16 μg/ml) of 0% and an inhibition at 0.8 µg/mL ([2]; 144 h, Day 6, 0.8 μg/ml) of 0%. For the same compound, the inhibition at 4 µg/mL ([2]; 144 h, Day 6, 4 μg/ml) was 18%, the inhibition at 20 µg/mL ([2]; 144 h, Day 6, 20 μg/ml) was 72% and the inhibition at 0.032 µg/mL ([2]; 288 h, Day 12, 0.032 μg/ml) was 0%. The inhibition at 0.16 µg/mL ([2]; 288 h, Day 12, 0.16 μg/ml) was 0%, the inhibition at 0.8 µg/mL ([2]; 288 h, Day 12, 0.8 μg/ml) was 40% and the inhibition at 4 µg/mL ([2]; 288 h, Day 12, 4 μg/ml) was 67%. The inhibition at 20 µg/mL ([2]; 288 h, Day 12, 20 μg/ml) was 91%, the inhibition at 0.032 µg/mL ([2]; 432 h, Day 18, 0.032 μg/ml) was 0% and the inhibition at 0.16 µg/mL ([2]; 432 h, Day 18, 0.16 μg/ml) was 0%. It also gave an inhibition at 0.8 µg/mL ([2]; 432 h, Day 18, 0.8 μg/ml) of 0%, an inhibition at 4 µg/mL ([2]; 432 h, Day 18, 4 μg/ml) of 0% and an inhibition at 20 µg/mL ([2]; 432 h, Day 18, 20 μg/ml) of 78%. The “suppression of HIV-1 replication in fresh monocytes (in words)” value ([2]; suksdorfin at 20 and 4 μg/ml, AZT positive control) was “did suppress HIV-1 replication in fresh monocytes”.
